Test results from patent US8461119B2, “Agents that modulate Eph receptor activity” (The Burnham Institute, priority 2002, dated 2013).
Entries after “also recorded” stand apart in the source; their conditions may differ. Like-named read-outs stand apart in the source and are kept apart here.

Legend:
EphB receptors = experiment: Immobilized biotinylated synthetic peptide capturing Eph receptor Fc (ELISA); type: binding
From the text: (§3) Bound Eph receptors were detected with anti-human Fc antibody conjugated to alkaline phosphatase (AP) (Promega, Madison, Wis.). […] Substrates were 2,2′-azino-bis(3-ethylbenzthiazoline-6-sulfonic acid) for horseradish peroxidase and p-nitrophenyl phosphate for AP.

MAP kinase = MAP kinase phosphorylation in HUVE cells (immunoblot); type: cell-based, human
From the text: Cell lysates were used to immunoprecipitate EphA2 as described above or probed by immunoblotting with anti-phospho-p44/p42 MAPK antibody (Cell Signaling Technology, Beverly, Mass.) followed by an anti-mouse IgG peroxidase-conjugated antibody (Arnersham) and re-probed with an anti-ERK2 antibody (Santa Cruz Biotechnology, Santa Cruz, Calif.) followed by a secondary anti-rabbit IgG peroxidase-conjugated antibody (Amersham). Erk2 (p42 MAP kinase) is the major phosphorylated form present. EphA2 was immunoprecipitated (IP) and probed by immunoblotting with anti-phosphotyrosine (PTyr) or anti-EphA2 antibodies.

EphA receptors = experiment: Immobilized biotinylated synthetic peptide capturing Eph receptor Fc (ELISA); type: binding; conditions: Fc fusion proteins of EphA receptors
From the text: as §3

EphA2 [1] = molecular target: T1, EphA2 (Mus musculus, UniProt Q03145); experiment: as above; type: binding; conditions: biotinylated peptide on streptavidin-coated wells
T1 construct: purchased R&D Systems
Target sequence in this assay (Q03145 with tags, fused parts or gaps limits assumed): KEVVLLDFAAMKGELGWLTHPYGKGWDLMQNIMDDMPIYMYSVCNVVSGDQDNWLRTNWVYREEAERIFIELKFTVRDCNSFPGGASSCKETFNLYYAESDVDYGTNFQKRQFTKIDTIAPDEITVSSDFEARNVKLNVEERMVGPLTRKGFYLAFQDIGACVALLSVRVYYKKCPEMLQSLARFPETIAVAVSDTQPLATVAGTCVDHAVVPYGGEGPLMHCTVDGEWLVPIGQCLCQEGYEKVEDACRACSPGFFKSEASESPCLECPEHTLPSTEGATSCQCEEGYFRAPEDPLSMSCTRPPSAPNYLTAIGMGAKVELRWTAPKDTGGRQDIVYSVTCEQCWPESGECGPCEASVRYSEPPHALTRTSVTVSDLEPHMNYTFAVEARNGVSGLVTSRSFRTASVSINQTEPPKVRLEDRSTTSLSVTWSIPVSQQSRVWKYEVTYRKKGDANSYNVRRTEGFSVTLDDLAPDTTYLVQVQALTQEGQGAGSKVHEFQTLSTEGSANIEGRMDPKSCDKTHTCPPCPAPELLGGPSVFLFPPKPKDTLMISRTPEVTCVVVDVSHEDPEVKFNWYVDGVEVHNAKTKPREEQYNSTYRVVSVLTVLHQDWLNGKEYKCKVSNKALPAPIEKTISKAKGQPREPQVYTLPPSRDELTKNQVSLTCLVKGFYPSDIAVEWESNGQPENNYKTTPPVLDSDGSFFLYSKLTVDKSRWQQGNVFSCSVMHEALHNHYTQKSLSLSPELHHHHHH
From the text: as §3

EphA4 [2] = molecular target: T2, EphA4 (Homo sapiens, UniProt P54764); experiment: Ephrin-AP binding to Eph receptor-coated wells in presence of peptide; conditions: for Antagonism of ephrin-A5 binding to EphA4: ephrin-A5 AP
T2 construct: immobilized EphA4 receptor extracellular domain fused to a human Fc region
T2 sequence (P54764 20-547 limits assumed, species assumed): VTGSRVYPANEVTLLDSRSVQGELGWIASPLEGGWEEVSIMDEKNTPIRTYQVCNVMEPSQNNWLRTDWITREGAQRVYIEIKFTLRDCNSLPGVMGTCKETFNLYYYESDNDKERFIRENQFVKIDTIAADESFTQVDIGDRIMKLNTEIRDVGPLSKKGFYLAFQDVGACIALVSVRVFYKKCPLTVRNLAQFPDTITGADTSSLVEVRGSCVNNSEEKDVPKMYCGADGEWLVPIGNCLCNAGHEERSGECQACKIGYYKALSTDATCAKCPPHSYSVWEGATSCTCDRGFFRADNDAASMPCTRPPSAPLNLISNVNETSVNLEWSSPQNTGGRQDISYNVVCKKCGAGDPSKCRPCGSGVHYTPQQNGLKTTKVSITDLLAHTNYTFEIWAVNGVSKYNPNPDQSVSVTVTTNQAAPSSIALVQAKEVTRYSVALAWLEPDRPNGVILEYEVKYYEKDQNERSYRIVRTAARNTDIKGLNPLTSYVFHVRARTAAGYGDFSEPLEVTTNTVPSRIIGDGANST
Experimental: Diluted cell culture supernatants containing ephrin-A5-AP and ephrin-A6-AP were co-incubated with peptides in microtiter wells coated with EphA2 Fc or EphA4 Fc. Ephrins remaining bound after washing were detected by measuring AP activity.

EphA2 [3] = molecular target: T1, EphA2; experiment: as above; conditions: ephrin-A5-AP, ephrin-A6-AP
Target sequence in this assay (Q03145 with tags, fused parts or gaps limits assumed): as the sequence (Q03145 with tags, fused parts or gaps limits assumed) above
Experimental: Ephrin binding to Eph receptor-coated plates was quantified using alkaline phosphatase (AP) fusion proteins of ephrin-A5 and ephrin-A6 (plasmids encoding these AP-fusions are described above). Diluted cell culture supernatants containing ephrin-A5-AP and ephrin-A6-AP were co-incubated with peptides in microtiter wells coated with EphA2 Fc or EphA4 Fc. Ephrins remaining bound after washing were detected by measuring AP activity.

EphA2 [4] = molecular target: T1, EphA2; experiment: Peptide competition with phage clones on immobilized EphA2 Fc; type: binding
Target sequence in this assay (Q03145 26-538 limits assumed): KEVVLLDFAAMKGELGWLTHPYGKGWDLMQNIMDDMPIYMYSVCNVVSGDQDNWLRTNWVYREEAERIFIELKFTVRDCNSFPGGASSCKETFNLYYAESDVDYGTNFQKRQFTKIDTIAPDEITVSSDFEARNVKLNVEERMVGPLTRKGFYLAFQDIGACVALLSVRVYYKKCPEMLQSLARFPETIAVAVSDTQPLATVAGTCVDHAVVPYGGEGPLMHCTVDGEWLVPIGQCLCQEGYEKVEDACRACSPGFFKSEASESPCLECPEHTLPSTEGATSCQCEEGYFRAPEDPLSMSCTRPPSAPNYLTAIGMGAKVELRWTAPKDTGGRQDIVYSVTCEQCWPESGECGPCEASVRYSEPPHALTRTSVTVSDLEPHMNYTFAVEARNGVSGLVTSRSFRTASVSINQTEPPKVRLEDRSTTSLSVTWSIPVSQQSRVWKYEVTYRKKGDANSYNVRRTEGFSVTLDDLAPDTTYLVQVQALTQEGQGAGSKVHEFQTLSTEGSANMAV
Experimental: A histidine-tagged mouse EphA2 Fc fusion protein (R&D Systems, Minneapolis, Minn.) was incubated overnight at 4° C. in nickel-nitrilotriacetic acid (Ni-NTA)-coated ELISA plates at concentrations of 1-10 μg/ml in Tris-buffered saline (TBS) (150 mM NaCl, 50 mM Tris-HCl, pH 7.5). Wells were blocked with 0.5% bovine serum albumin (BSA) in TBS, and rinsed with binding buffer (TBS, 1 mM CaCl2, 0.1% Tween 20).
For peptide competition assays with phage clones, Ni-NTA microtiter wells coated with EphA2 Fc were incubated for 1 hour at room temperature with phage clones diluted between 1:600 and 1:9,000 in binding buffer (100 μl/well). Unbound phage were washed away and competing peptides were added for 1 hour. Alternatively, peptides and phage were co-incubated together.

EphB4 [5] = experiment: Binding specificity of synthetic peptides; conditions: immobilized synthetic peptide
From the text: as §3

EphB4 [6] = experiment: Binding specificity of phage clones on Eph receptor-coated plates; conditions: phage clones displaying the peptides
From the text: (§4) Phage binding to Eph receptor-coated plates was quantified using an anti-phage antibody conjugated to horseradish peroxidase (M13 phage detection kit, Amersham Pharmacia Biotech., Piscataway, N.J.).

EphA7 = experiment: Binding selectivity of phage clones isolated on EphA7
Experimental: (§1) Alternatively, peptides and phage were co-incubated together.
(§2) In this example additional phage panning experiments were performed to identify peptides that bind to EphA5 and EphA7 (FIG. 18A). EphA5 and EphA7 are two EphA receptors that are closely related to EphA4 but are differentially expressed in the developing and adult nervous system (Ellis, J. et al. 1995 Mechanisms of Development 52:319-341; Mori, T. et al 1995 Brain Res Mol Brain Res 34:154-160; Olivieri, G. & Miescher, G. C. 1999 J Histochem Cytochem 47:855-861; Zhang, J. H. et al 1997 Brain Res Mol Brain Res 47:202-214). Three different peptide sequences that bind each receptor were identified.

EphA4 [7] = molecular target: T3, EphA4 (Mus musculus, UniProt Q03137); experiment: Ephrin-A3 Fc induced EphA4 tyrosine phosphorylation in hippocampal slices; type: cell-based; conditions: micromolar peptide
T3 construct: antagonize ephrin-A3-induced tyrosine phosphorylation of endogenous EphA4; from tissue; host or cells: mouse hippocampal slices
T3 sequence (Q03137 20-986): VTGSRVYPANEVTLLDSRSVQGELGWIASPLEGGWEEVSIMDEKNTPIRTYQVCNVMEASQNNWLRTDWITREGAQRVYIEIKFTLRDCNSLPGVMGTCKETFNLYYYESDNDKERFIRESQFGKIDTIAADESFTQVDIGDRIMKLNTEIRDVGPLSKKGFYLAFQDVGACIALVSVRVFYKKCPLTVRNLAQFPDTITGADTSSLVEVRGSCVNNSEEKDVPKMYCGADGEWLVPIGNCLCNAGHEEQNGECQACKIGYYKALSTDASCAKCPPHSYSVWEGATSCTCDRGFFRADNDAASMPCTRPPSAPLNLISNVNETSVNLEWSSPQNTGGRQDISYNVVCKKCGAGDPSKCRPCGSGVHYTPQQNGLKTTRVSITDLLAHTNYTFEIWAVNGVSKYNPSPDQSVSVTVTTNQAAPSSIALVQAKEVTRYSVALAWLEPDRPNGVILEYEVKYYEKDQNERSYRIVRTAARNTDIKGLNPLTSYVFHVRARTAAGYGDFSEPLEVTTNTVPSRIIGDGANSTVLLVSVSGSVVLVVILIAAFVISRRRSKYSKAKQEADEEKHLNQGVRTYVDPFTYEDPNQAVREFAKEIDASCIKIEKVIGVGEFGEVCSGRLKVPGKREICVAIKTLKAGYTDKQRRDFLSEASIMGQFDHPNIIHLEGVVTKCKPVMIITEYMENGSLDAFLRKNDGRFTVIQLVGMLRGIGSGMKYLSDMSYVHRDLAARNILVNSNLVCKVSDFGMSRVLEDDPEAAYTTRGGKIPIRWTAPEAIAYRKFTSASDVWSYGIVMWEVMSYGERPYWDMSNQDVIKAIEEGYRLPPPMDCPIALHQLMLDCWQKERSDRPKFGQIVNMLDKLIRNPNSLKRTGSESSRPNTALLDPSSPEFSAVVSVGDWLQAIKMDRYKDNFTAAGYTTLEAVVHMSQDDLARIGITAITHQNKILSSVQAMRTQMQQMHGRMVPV

neural crest cells = experiment: Neural crest cell migration assay in chick trunk explants; type: cell-based; conditions: 24 hours, 13 μM KYL peptide or 10 μg/ml EphA4-Fc
Experimental: In this example to address whether the EphA4-binding peptides can inhibit endogenous ephrin-EphA4 physiological function, a neural crest cell migration assay (McLennan, R. & Krull, C. E. 2002 Gene Expr 10:295-305) was utilized. […] The migration of neural crest cells was determined by staining for HNK-1 for neural crest cells and ephrin-B1 to label the caudal sclerotome. […] Neural crest cells migrated properly into the rostral sclerotome in explants treated with control Fc.

EphA4 [8] = molecular target: T2, EphA4; experiment: Binding specificity of synthetic peptides; conditions: compared to other EphA and EphB receptors
From the text: as §3

EphA4 [9] = molecular target: T2, EphA4; experiment: Binding selectivity of phage clones isolated on EphA4; conditions: compared to other EphA or EphB4 receptors
From the text: as §4
In this example phage display was used to identify peptides that bind to an EphA4 receptor. An M13 phage library displaying random 12-mer peptides was panned on the immobilized EphA4 receptor extracellular domain fused to a human Fc region (FIG. 12A). The phage clones remaining bound to EphA4 were eluted with a low pH solution and amplified.

EphA5 = experiment: Binding selectivity of phage clones isolated on EphA5
Experimental: as §1, §2

CSCC[C@H](NC(=O)[C@H](CCSC)NC(=O)[C@@H]1CCCN1C(=O)[C@@H](NC(=O)[C@H](CO)NC(=O)[C@H](CC(=O)O)NC(=O)[C@@H]1CCCN1C(=O)[C@H](Cc1ccc(O)cc1)NC(=O)[C@H](C)NC(=O)[C@H](CO)NC(=O)[C@@H](N)Cc1ccc(O)cc1)C(C)C)C(=O)N[C@@H](CO)C(=O)O [YSA]
Binding of synthetic peptide to receptors of the EphB family (EphB receptors): lack the ability to bind to receptors of the EphB family
MAP kinase activation (MAP kinase): activates a previously described Eph2A signaling pathway that suppresses MAP kinase activation
Binding of immobilized synthetic peptide to EphA receptors (other than or including EphA2) (EphA receptors): not to other EphA receptors
Binding of immobilized synthetic peptide to EphA2 Fc (EphA2 [1]): bound to EphA2
Inhibition of A-ephrin binding to immobilized EphA4 by EphA2-binding peptides (EphA4 [2]; ephrin-A5-AP, ephrin-A6-AP): not EphA4
Inhibition of ephrin binding to immobilized EphA2 (EphA2 [3]): inhibit, in a concentration dependent manner
Competition of synthetic peptide with phage binding to immobilized EphA2 (EphA2 [4]): competes with SWL phage

A3 peptide: Twelve-mer synthetic peptide corresponding to the G-H loop of ephrin-A3
Binding of immobilized synthetic peptide to EphA receptors (other than or including EphA2) (EphA receptors): bind promiscuously to all EphA receptors
Binding of immobilized synthetic peptide to EphA2 Fc (EphA2 [1]): bind EphA2, albeit more weakly than the YSA peptide
Inhibition of ephrin binding to immobilized EphA2 (EphA2 [3]): did not compete with ephrin-A5 for binding to EphA2
Competition of synthetic peptide with phage binding to immobilized EphA2 (EphA2 [4]): did not inhibit phage binding

A5 peptide: Twelve-mer synthetic peptide corresponding to the A-A′ β-strand of ephrin-A5
Binding of immobilized synthetic peptide to EphA receptors (other than or including EphA2) (EphA receptors): bind promiscuously to all EphA receptors
Binding of immobilized synthetic peptide to EphA2 Fc (EphA2 [1]): bind EphA2, albeit more weakly than the YSA peptide
Inhibition of ephrin binding to immobilized EphA2 (EphA2 [3]): enhanced both phage and ephrin-A5 binding to EphA2
Competition of synthetic peptide with phage binding to immobilized EphA2 (EphA2 [4]): enhanced both phage and ephrin-A5 binding to EphA2

DALNDWLLFRPW (DAL peptide)
EphB4 bound compared to other EphB family receptors (EphB4 [5]): four-fold
Binding of phage clones to EphB4 Fc (EphB4 [6]): bound to EphB4 Fc

IPWTQHMAMSPM (IPW peptide)
Binding of phage clones to EphB4 Fc (EphB4 [6]): bound to EphB4 Fc

KHLPFYPHPTSP (EphA7-binding peptide)
Binding to further EphA receptors of EphA7-binding peptides (EphA7): also binds to EphA3, EphA5, and EphA6

KYLPYWPVLSSL (KYL peptide)
Ephrin-A3-induced tyrosine phosphorylation (activation) of endogenous EphA4 (EphA4 [7]): blocked EphA4 tyrosine phosphorylation at lower concentrations than the APY and VTM peptides; also recorded: antagonize ephrin-A3 induced activation of endogenous EphA4
Migration of neural crest cells (neural crest cells): ectopic migration of neural crest cells into the caudal half-sclerotome
Selectivity of synthetic peptide for EphA4 (EphA4 [8]): exhibited some binding to other EphA and EphB receptors
Antagonism of ephrin-A5 binding to EphA4 (EphA4 [2]): antagonize ephrin-A5 binding to EphA4 in a concentration-dependent manner
Peptide concentration that almost completely inhibited ephrin binding (EphA4 [2]; ephrin-A5 AP binding to EphA4): 1 µM
Selectivity of block of ephrin-A5 AP binding to EphA4 compared to other EphA receptors (EphA4 [2]; peptide 50 μM): preferentially
Binding preference of phage clones for EphA4 (EphA4 [9]): preferential binding to EphA4

NHWLDTLFPMHM (EphA4-binding peptide)
Binding preference of phage clones for EphA4 (EphA4 [9]): preferential binding to EphA4

SGHQLLLNKMPN (SGH peptide)
Binding of phage clones to EphB4 Fc (EphB4 [6]): bound to EphB4 Fc

SLRDTYMRAKVL (SLR peptide)
Binding selectivity of peptides isolated on EphA5 (EphA5): selective binding to this receptor
Binding selectivity of peptides isolated on EphA5 (EphA5; listed as SLR): selectively bind to EphA5

SVSVGMKPSPRP (SVS peptide)
Binding to further EphA receptors of EphA7-binding peptides (EphA7): also binds to EphA3 and EphA6

VADRYAVYWNSSNPR (extended A5 peptide)
Binding of immobilized synthetic peptide to EphA2 Fc (EphA2 [1]): exhibits a similar weak binding

VTMEAINLAFPG (VTM peptide)
Ephrin-A3-induced tyrosine phosphorylation (activation) of endogenous EphA4 (EphA4 [7]): antagonize ephrin-A3 induced activation of endogenous EphA4
Antagonism of ephrin-A5 binding to EphA4 (EphA4 [2]): antagonize ephrin-A5 binding to EphA4 in a concentration-dependent manner
Mode of inhibition of ephrin binding (EphA4 [2]; inhibition curves at different ephrin concentrations): competitively inhibits ephrin binding
Binding preference of phage clones for EphA4 (EphA4 [9]): preferential binding to EphA4

WASHAPYWPHPP (EphA7-binding peptide)
Binding to further EphA receptors of EphA7-binding peptides (EphA7): also binds to EphA3

WDCNGPYCHWLG (WDC peptide)
Binding selectivity of peptides isolated on EphA5 (EphA5): selective binding to this receptor
Binding selectivity of peptides isolated on EphA5 (EphA5; listed as WDC): selectively bind to EphA5

WTFPVLWDDKHP (WTF peptide)
Binding selectivity of peptides isolated on EphA5 (EphA5): also binds to EphA6
Binding selectivity of peptides isolated on EphA5 (EphA5; listed as WTF): binds to both EphA5 and EphA6
